{"source": "patent US6583283B1", "about": "“Polymorphic forms of cipamfylline” (SmithKline Beecham Corporation, priority 1997, dated 2003)", "type_in_all_cases": "physicochemical", "key": {"[1]": {"test": "Heats of solution in methanol and acetone", "details": "for Heat of solution, Acetone / Heat of solution, Methanol: endothermic; for Heat of solution, Acetone: solvent acetone; for Heat of solution, Methanol: solvent methanol", "description": "Heats of solution were determined using acetone and methanol as suitable solvents. Different polymorphic forms give rise to different heats of solution. […] The value of HT, the heat of transition, is equal to the difference in crystal lattice energy of the two forms and is the same in both solvents. This is predicted since individual enthalpies are solvent dependent but difference are not. […] Heats of solution for Form IV are in progress."}, "Crystalline stability": {"test": "Crystalline stability", "details": "Forms I, II and IV compared", "from_the_text": "Form I is characterized by a minimum of five years crystalline stability."}, "[2]": {"test": "Compression and grinding study", "details": "for Stability to compression / Stability to grinding: polymorphic form followed by IR", "description": "These spectra were recorded using a Spectra-Tech Plan II microscope coupled to a P-E 1760 FTIR spectrometer (64-256 scans, ratio mode, MCT detector, 4 cm^−1 resolution, dry air purge). Spectra of samples without sample preparation were obtained by mounting crystals on a diamond window. Crushed crystals were prepared using a Spectra-Tech micro-Sample Plan (a compression cell) fitted with diamond windows. A stereo microscope was used to observe the behavior of the crystals during compression. After compression, the diamond windows were separated and a spectrum was recorded of the material adhering to one of the windows."}, "[3]": {"test": "Thermal analysis (thermomicroscopy, annealing)", "details": "for Polymorphic form after annealing (by IR): 10° C./min from ambient to ca. 250° C., held ½-1 hour, slow cooling to room temperature", "description": "Differential Scanning Calorimetry (DSC) could not differentiate the three forms of Cipamfylline. […] However, when the heating rate was reduced sufficiently, the melting endotherm appeared as a fused melt, i.e. two components melting. This behavior was common to both Forms I and II.\nThe onset of sublimation was different for each form and continued over a wide temperature range (130-290° C. on a non-calibrated instrument). This is not evident on the DSC thermograms. Melting occurred over a range (310-323° C. on a non-calibrated instrument) for all three forms. The possibility of two components melting consecutively could not be distinguished. The sublimate was collected for all three forms and analyzed by IR and NMR.\nThe annealing procedure consisted of heating at 10° C./min from ambient to ca. 250° C. and holding at this point for ½-1 hour, then allowing the sample to cool slowly to room temperature.\nThis could explain the similarity in melting points of the three forms."}, "[4]": {"test": "Solubility in recrystallization solvents", "details": "solvents marked with an asterisk, such as toluene or water"}}, "data": [{"smiles": "Nc1nc2c([nH]1)c(=O)n(CC1CC1)c(=O)n2CC1CC1", "note": "[Form I, 1,3-di-cyclopropylmethyl-8-amino xanthine]", "values": [{"measurement": "Heat of solution, Acetone", "setting": "[1]; listed as 1", "value": 3.93, "unit": "kcal/mol"}, {"measurement": "Heat of solution, Methanol", "setting": "[1]; listed as 1", "value": 4.81, "unit": "kcal/mol"}, {"measurement": "Relative stability among the three polymorphs", "setting": "Crystalline stability", "value": "greatest stability"}, {"measurement": "Stability to compression", "setting": "[2]", "value": "stable"}, {"measurement": "Stability to grinding", "setting": "[2]", "value": "stable"}, {"measurement": "Relative stability indicated by thermal experiments", "setting": "[3]", "value": "the most stable form"}, {"measurement": "Polymorphic form after annealing (by IR)", "setting": "[3]", "value": "converted to Form I"}]}, {"smiles": "Nc1nc2c([nH]1)c(=O)n(CC1CC1)c(=O)n2CC1CC1", "note": "[Form II, 1,3-di-cyclopropylmethyl-8-amino xanthine]", "values": [{"measurement": "Relative stability suggested by heats of solution", "setting": "[1]; Form I vs Form II, both solvents", "value": "the more stable form"}, {"measurement": "Heat of solution, Acetone", "setting": "[1]; listed as 2", "value": 5.59, "unit": "kcal/mol"}, {"measurement": "Heat of solution, Methanol", "setting": "[1]; listed as 2", "value": 6.47, "unit": "kcal/mol"}, {"measurement": "Stability to compression", "setting": "[2]", "value": "stable to compression"}, {"measurement": "Stability to grinding", "setting": "[2]", "value": "not to severe grinding"}, {"measurement": "Polymorphic form after annealing (by IR)", "setting": "[3]", "value": "converted to Form I"}]}, {"smiles": "Nc1nc2c([nH]1)c(=O)n(CC1CC1)c(=O)n2CC1CC1", "note": "[Cipamfylline, 1,3-di-cyclopropylmethyl-8-amino xanthine]", "values": [{"measurement": "Solubility in solvent", "setting": "[4]", "value": "particularly low solubility"}]}, {"smiles": "Nc1nc2c([nH]1)c(=O)n(CC1CC1)c(=O)n2CC1CC1", "note": "[Form IV, 1,3-di-cyclopropylmethyl-8-amino xanthine]", "values": [{"measurement": "Polymorphic conversion under pressure", "setting": "[2]; under pressure, under some circumstances", "value": "convert to Form I"}]}]}
